Reference: ChEMBL document CHEMBL1148392 (J Med Chem, 2004)
pIC50: −log10 of the molar value.

What was measured:
Carbonic anhydrase 9 = Carbonic anhydrase 9 (Homo sapiens, UniProt Q16790)
Description: Inhibitory activity against human carbonic anhydrase IX was determined

Oryctolagus cuniculus [1] = species on record: Oryctolagus cuniculus; details: dose 30 mg/kg
Description: Variation of intraocular pressure in seventh day at a dose of 30 mg/kg by systemic administration in hypertensive rabbits

Carbonic anhydrase 1 = Carbonic anhydrase 1 (Homo sapiens, UniProt P00915)
Description: Inhibitory activity against human carbonic anhydrase I was determined

Carbonic anhydrase 2 = Carbonic anhydrase 2 (Homo sapiens, UniProt P00918)
Description: Inhibitory activity against human carbonic anhydrase II was determined

Oryctolagus cuniculus [2] = species on record: Oryctolagus cuniculus; details: dose 30 mg/kg; remark: listed apart in the source
Description: Variation of intraocular pressure in fourth day at a dose of 30 mg/kg at a dose by systemic administration in hypertensive rabbits

Oryctolagus cuniculus [3] = species on record: Oryctolagus cuniculus; details: dose 30 mg/kg; remark: listed apart in the source
Description: Variation of intraocular pressure in second day at a dose of 30 mg/kg by systemic administration in hypertensive rabbits

Oryctolagus cuniculus [4] = experiment: Variation of intraocular pressure in fifth day at a dose of 30 mg/kg by systemic administration in hypertensive rabbits; type: functional, Eye
Oryctolagus cuniculus [5] = species on record: Oryctolagus cuniculus; details: dose 30 mg/kg; remark: listed apart in the source
Description: Variation of intraocular pressure in sixth day at a dose of 30 mg/kg by systemic administration in hypertensive rabbits

Oryctolagus cuniculus [6] = species on record: Oryctolagus cuniculus; details: dose 30 mg/kg; remark: listed apart in the source
Description: Variation of intraocular pressure in third day at a dose of 30 mg/kg by systemic administration in hypertensive rabbits

Oryctolagus cuniculus [7] = species on record: Oryctolagus cuniculus; details: dose 30 mg/kg; remark: listed apart in the source
Description: Variation of intraocular pressure in day one at a dose of 30 mg/kg by systemic administration in hypertensive rabbits

Carbonic anhydrase 4 = target: T1, Carbonic anhydrase 4 (Bos taurus, UniProt Q95323)
T1 sequence (Q95323 whole entry): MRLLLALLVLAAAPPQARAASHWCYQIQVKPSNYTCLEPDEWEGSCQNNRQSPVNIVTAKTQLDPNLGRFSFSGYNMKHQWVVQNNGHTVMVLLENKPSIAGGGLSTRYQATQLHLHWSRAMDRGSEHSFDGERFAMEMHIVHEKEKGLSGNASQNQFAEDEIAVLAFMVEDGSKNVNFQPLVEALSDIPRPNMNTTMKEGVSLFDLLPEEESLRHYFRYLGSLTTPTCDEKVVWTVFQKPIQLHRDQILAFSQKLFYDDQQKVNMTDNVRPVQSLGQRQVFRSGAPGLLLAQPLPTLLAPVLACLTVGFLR
Description: Inhibitory activity against bovine carbonic anhydrase IV was determined

Chain of Carbonic anhydrase 1 (P00915 whole entry): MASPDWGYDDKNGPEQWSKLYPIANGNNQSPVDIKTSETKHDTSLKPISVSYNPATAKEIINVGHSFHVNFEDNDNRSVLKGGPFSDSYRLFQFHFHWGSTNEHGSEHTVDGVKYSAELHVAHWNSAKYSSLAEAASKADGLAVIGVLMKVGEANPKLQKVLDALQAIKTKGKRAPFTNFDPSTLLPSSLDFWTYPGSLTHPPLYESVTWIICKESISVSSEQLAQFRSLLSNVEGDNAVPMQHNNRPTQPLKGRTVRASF

SMILES	pIC50 (Carbonic anhydrase 9)	Delta IOP (Oryctolagus cuniculus [1]) [mmHg]	pIC50 (Carbonic anhydrase 1)	pIC50 (Carbonic anhydrase 2)	Delta IOP (Oryctolagus cuniculus [2]) [mmHg]	Delta IOP (Oryctolagus cuniculus [3]) [mmHg]	Delta IOP (Oryctolagus cuniculus [4]) [mmHg]	Delta IOP (Oryctolagus cuniculus [5]) [mmHg]	Delta IOP (Oryctolagus cuniculus [6]) [mmHg]	Delta IOP (Oryctolagus cuniculus [7]) [mmHg]	pIC50 (Carbonic anhydrase 4)
Cc1ccc(-c2cc(C(F)(F)F)nn2-c2ccc(S(N)(=O)=O)cc2)cc1 [CELECOXIB]	7.80										
CS(=O)(=O)c1ccc(-n2cc(-c3ccc(F)cc3)c(C(F)(F)F)n2)cc1	< 4.00	0.16	< 4.00	< 4.00	0.25	0.31	0.16	0.34	0.22	0.14	< 4.00
COc1ccc(-n2nc(C(F)(F)F)cc2-c2ccc(Cl)cc2)cc1 [SC-560]	< 4.00	0.52	< 4.00	< 4.00	0.34	0.017	0.3	0.41	0.25	0.23	< 4.00
